Data on two compounds can be found in patent US6274636A (priority 1999, dated 2001).

A short description of data set [1]: detection of radiolabelled compound in saliva. Type of data set: in vivo.
Data set [2] deals with muscarinic cholinergic receptor. Put plainly: pharmacological studies, muscarinic cholinergic receptor activity.
In data set [3] the test system is rats. Put plainly: in vivo animal observation, overdose in rats. The note with it: rats exposed to an overdose.
For data set [4] the following is noted: known; cited from earlier work.
Data set [5] in a line: human clinical trials, safety profile. Type of data set: in vivo.
The subject of data set [6] is muscarinic receptor subtype. Put plainly: in vivo animal and clinical observations, muscarinic receptor subtype profile.
The subject of data set [7] is clinical subjects. Description: clinical observation, pupil response. Type of data set: in vivo, human.
For data set [8], the system named is 5-HT1C receptor. Put plainly: activity at the 5-HT1C receptor. The note with it: anhydrous Form II.

On to `Cc1cc2c(s1)Nc1ccccc1N=C2N1CCN(C)CC1` [2-methyl-4-(4-methyl-1-piperazinyl)-10H-thieno[2,3-b][1,5]benzodiazepine], for which the “detection in the saliva” value in data set [1] was “can be detected in the saliva”. Moreover, in data set [2], the “muscarinic cholinergic receptor activity” value was “has muscarinic cholinergic receptor activity”. Further, in data set [3], the salivation entry is on record as “significant salivation”. The “induction of extrapyramidal symptoms” value in data set [4] is “less likely to induce extrapyramidal symptoms”. In data set [5], the safety profile result is “favorable safety profile”. Besides, the “muscarinic receptor subtype profile” value in data set [6] is “complex muscarinic receptor subtype profile”. In addition, in data set [7], the pupilary response result was “pupilary constriction rather than the expected pupilary dilation”.
In the case of `Cc1cc2c(s1)Nc1ccccc1N=C2N1CCN(C)CC1` [anhydrous Form II, 2-methyl-4-(4-methyl-1-piperazinyl)-10H-thieno[2,3-b][1,5]benzodiazepine], the “activity at the 5-HT1C receptor” value in data set [8] is “active”.
